Tests used:
Experiment in all cases: relative viability (nuclei count vs DMSO), 5 days (fraction); higher = more cells survive
201T = system: 201T
In short: (§1)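 Lung cancer cell lines, seeded in 1536-well plates, were treated the following day by pin tool with a single drug or with five library-drug doses (not always all listed) in √10 steps on top of a fixed anchor-drug dose. Cells were fixed and nuclei stained in one step after 5 days, and nuclei were counted. Relative viability is the nuclei count for treated wells divided by that for vehicle wells, reported as medians of duplicate plates.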

COR-L 105 = system: COR-L 105
In short: as §1

ChaGo-K-1 = system: ChaGo-K-1
In short: as §1

EKVX = system: EKVX
In short: as §1

H3255 = system: H3255
In short: as §1

HARA = system: HARA
In short: as §1

HCC-827 = system: HCC-827
In short: as §1

HOP-62 = system: HOP-62
In short: as §1

LCLC-103H = system: LCLC-103H
In short: as §1

LOU-NH91 = system: LOU-NH91
In short: as §1

NCI-H1975 = system: NCI-H1975
In short: as §1

NCI-H2126 = system: NCI-H2126
In short: as §1

NCI-H2228 = system: NCI-H2228
In short: as §1

NCI-H23 = system: NCI-H23
In short: as §1

NCI-H2405 = system: NCI-H2405
In short: as §1

NCI-H3122 = system: NCI-H3122
In short: as §1

NCI-H596 = system: NCI-H596
In short: as §1

NCI-H650 = system: NCI-H650
In short: as §1

NCI-H661 = system: NCI-H661
In short: as §1

NCI-H727 = system: NCI-H727
In short: as §1

PC-3 [JPC-3] = system: PC-3 [JPC-3]
In short: as §1

SK-LU-1 = system: SK-LU-1
In short: as §1

SW 900 = system: SW 900
In short: as §1

Cc1csc(=NC2CCCCC2)n1/N=C/c1ccc(O)c(O)c1O [MIM1] + O=C(CCCCCCC(=O)Nc1ccccc1)NO [Vorinostat] (partner 1 µM)
relative viability (201T; first compound 0.2 µM): 0.974 | relative viability (201T; first compound 0.6325 µM): 0.952 | relative viability (201T; first compound 2 µM): 0.935 | relative viability (201T; first compound 6.325 µM): 0.528 | relative viability (201T; first compound 20 µM): 0.3 | relative viability (COR-L 105; first compound 0.2 µM): 0.809 | relative viability (COR-L 105; first compound 0.6325 µM): 0.821 | relative viability (COR-L 105; first compound 2 µM): 0.774 | relative viability (COR-L 105; first compound 6.325 µM): 0.731 | relative viability (COR-L 105; first compound 20 µM): 0.616 | relative viability (ChaGo-K-1; first compound 0.2 µM): 0.714 | relative viability (ChaGo-K-1; first compound 0.6325 µM): 0.449 | relative viability (ChaGo-K-1; first compound 2 µM): 0.699 | relative viability (ChaGo-K-1; first compound 6.325 µM): 0.543 | relative viability (ChaGo-K-1; first compound 20 µM): 0.157 | relative viability (EKVX; first compound 0.2 µM): 0.609 | relative viability (EKVX; first compound 2 µM): 0.707 | relative viability (EKVX; first compound 6.325 µM): 0.473 | relative viability (EKVX; first compound 20 µM): 0.265 | relative viability (H3255; first compound 0.2 µM): 0.776 | relative viability (H3255; first compound 0.6325 µM): 0.901 | relative viability (H3255; first compound 2 µM): 0.759 | relative viability (H3255; first compound 6.325 µM): 0.67 | relative viability (H3255; first compound 20 µM): 0.321 | relative viability (HARA; first compound 0.2 µM): 0.523 | relative viability (HARA; first compound 0.6325 µM): 0.467 | relative viability (HARA; first compound 2 µM): 0.56 | relative viability (HARA; first compound 6.325 µM): 0.511 | relative viability (HARA; first compound 20 µM): 0.0696 | relative viability (HCC-827; first compound 0.2 µM): 0.871 | relative viability (HCC-827; first compound 0.6325 µM): 0.731 | relative viability (HCC-827; first compound 2 µM): 0.777 | relative viability (HCC-827; first compound 6.325 µM): 0.231 | relative viability (HCC-827; first compound 20 µM): 0.349 | relative viability (HOP-62; first compound 0.2 µM): 0.655 | relative viability (HOP-62; first compound 0.6325 µM): 0.469 | relative viability (HOP-62; first compound 2 µM): 0.541 | relative viability (HOP-62; first compound 6.325 µM): 0.379 | relative viability (HOP-62; first compound 20 µM): 0.0827 | relative viability (LCLC-103H; first compound 0.2 µM): 0.731 | relative viability (LCLC-103H; first compound 0.6325 µM): 0.39 | relative viability (LCLC-103H; first compound 2 µM): 0.768 | relative viability (LCLC-103H; first compound 6.325 µM): 0.48 | relative viability (LCLC-103H; first compound 20 µM): 0.342 | relative viability (LOU-NH91; first compound 0.2 µM): 0.672 | relative viability (LOU-NH91; first compound 0.6325 µM): 0.822 | relative viability (LOU-NH91; first compound 2 µM): 0.699 | relative viability (LOU-NH91; first compound 6.325 µM): 0.359 | relative viability (LOU-NH91; first compound 20 µM): 0.298 | relative viability (NCI-H1975; first compound 0.2 µM): 0.682 | relative viability (NCI-H1975; first compound 0.6325 µM): 0.708 | relative viability (NCI-H1975; first compound 2 µM): 0.644 | relative viability (NCI-H1975; first compound 6.325 µM): 0.239 | relative viability (NCI-H1975; first compound 20 µM): 0.204 | relative viability (NCI-H2126; first compound 0.2 µM): 0.745 | relative viability (NCI-H2126; first compound 0.6325 µM): 0.454 | relative viability (NCI-H2126; first compound 2 µM): 0.838 | relative viability (NCI-H2126; first compound 6.325 µM): 0.711 | relative viability (NCI-H2126; first compound 20 µM): 0.404 | relative viability (NCI-H2228; first compound 0.2 µM): 0.641 | relative viability (NCI-H2228; first compound 0.6325 µM): 0.909 | relative viability (NCI-H2228; first compound 2 µM): 0.589 | relative viability (NCI-H2228; first compound 6.325 µM): 0.19 | relative viability (NCI-H2228; first compound 20 µM): 0.206 | relative viability (NCI-H23; first compound 0.2 µM): 0.55 | relative viability (NCI-H23; first compound 0.6325 µM): 0.277 | relative viability (NCI-H23; first compound 2 µM): 0.478 | relative viability (NCI-H23; first compound 6.325 µM): 0.19 | relative viability (NCI-H23; first compound 20 µM): 0.123 | relative viability (NCI-H2405; first compound 0.2 µM): 1.01 | relative viability (NCI-H2405; first compound 0.6325 µM): 0.964 | relative viability (NCI-H2405; first compound 2 µM): 1.11 | relative viability (NCI-H2405; first compound 6.325 µM): 0.749 | relative viability (NCI-H2405; first compound 20 µM): 0.416 | relative viability (NCI-H3122; first compound 0.2 µM): 0.959 | relative viability (NCI-H3122; first compound 0.6325 µM): 0.894 | relative viability (NCI-H3122; first compound 2 µM): 1.02 | relative viability (NCI-H3122; first compound 6.325 µM): 0.618 | relative viability (NCI-H3122; first compound 20 µM): 0.127 | relative viability (NCI-H596; first compound 0.2 µM): 0.719 | relative viability (NCI-H596; first compound 0.6325 µM): 0.722 | relative viability (NCI-H596; first compound 2 µM): 0.561 | relative viability (NCI-H596; first compound 6.325 µM): 0.559 | relative viability (NCI-H596; first compound 20 µM): 0.337 | relative viability (NCI-H650; first compound 0.2 µM): 0.481 | relative viability (NCI-H650; first compound 0.6325 µM): 0.257 | relative viability (NCI-H650; first compound 2 µM): 0.402 | relative viability (NCI-H650; first compound 6.325 µM): 0.414 | relative viability (NCI-H650; first compound 20 µM): 0.116 | relative viability (NCI-H661; first compound 0.2 µM): 0.764 | relative viability (NCI-H661; first compound 0.6325 µM): 0.748 | relative viability (NCI-H661; first compound 2 µM): 0.742 | relative viability (NCI-H661; first compound 6.325 µM): 0.406 | relative viability (NCI-H661; first compound 20 µM): 0.292 | relative viability (NCI-H727; first compound 0.2 µM): 1.29 | relative viability (NCI-H727; first compound 0.6325 µM): 1.16 | relative viability (NCI-H727; first compound 2 µM): 1.15 | relative viability (NCI-H727; first compound 6.325 µM): 1.06 | relative viability (NCI-H727; first compound 20 µM): 0.607 | relative viability (PC-3 [JPC-3]; first compound 0.2 µM): 0.776 | relative viability (PC-3 [JPC-3]; first compound 0.6325 µM): 0.714 | relative viability (PC-3 [JPC-3]; first compound 2 µM): 0.726 | relative viability (PC-3 [JPC-3]; first compound 6.325 µM): 0.657 | relative viability (PC-3 [JPC-3]; first compound 20 µM): 0.376 | relative viability (SK-LU-1; first compound 0.2 µM): 0.764 | relative viability (SK-LU-1; first compound 0.6325 µM): 0.837 | relative viability (SK-LU-1; first compound 2 µM): 0.957 | relative viability (SK-LU-1; first compound 6.325 µM): 0.623 | relative viability (SK-LU-1; first compound 20 µM): 0.393 | relative viability (SW 900; first compound 0.2 µM): 0.45 | relative viability (SW 900; first compound 0.6325 µM): 0.632 | relative viability (SW 900; first compound 2 µM): 0.549 | relative viability (SW 900; first compound 6.325 µM): 0.175 | relative viability (SW 900; first compound 20 µM): 0.187
